Test results taken from ChEMBL document CHEMBL3785034, “New isosteroidal alkaloids with tracheal relaxant effect from the bulbs of Fritillaria pallidiflora Schrenk” (Bioorg Med Chem Lett, 2016).
pEC50: −log10 of the molar value. Active and inactive are the calls of the source. The calls are words filed in the database; no cut-off is given here.

Key:
Trachea [1] = experiment: Inhibition of Ach-induced contraction in Sprague-Dawley rat trachea assessed as tracheal tension at 10^-4 mol/L (reference value: 0.63 to 0.98 g); assay type: functional
Trachea [2] = experiment: Inhibition of Ach-induced contraction in Sprague-Dawley rat trachea assessed as maximal diastolic rate at 10^-4 mol/L (reference value: 15 +/- 4.2%); assay type: functional; parameters: scale not given: the % may be the effect or the level left
Trachea [3] = experiment: Inhibition of Ach-induced contraction in Sprague-Dawley rat trachea assessed as tracheal tension at 10^-9 mol/L (reference value: 0.63 to 0.98g); assay type: functional
Trachea [4] = experiment: Inhibition of Ach-induced contraction in Sprague-Dawley rat trachea assessed as tracheal tension at 10^-5 mol/L (reference value: 0.63 to 0.98 g); assay type: functional
Trachea [5] = experiment: Inhibition of Ach-induced contraction in Sprague-Dawley rat trachea assessed as tracheal tension at 10^-6 mol/L (reference value: 0.63 to 0.98 g); assay type: functional
Trachea [6] = experiment: Inhibition of KCl-induced contraction in Sprague-Dawley rat trachea assessed as maximal diastolic rate at 10^-4 mol/L (reference value: 6.6 +/- 0.3%); assay type: functional; parameters: scale not given: the % may be the effect or the level left
Trachea [7] = experiment: Inhibition of Ach-induced contraction in Sprague-Dawley rat trachea assessed as maximal diastolic rate at 10^-5 mol/L (reference value: 15.9 +/- 2.6%); assay type: functional; parameters: scale not given: the % may be the effect or the level left
Trachea [8] = experiment: Inhibition of KCl-induced contraction in Sprague-Dawley rat trachea assessed as maximal diastolic rate at 10^-8 mol/L (reference value: 7 +/- 0.3%); assay type: functional; parameters: scale not given: the % may be the effect or the level left
Trachea [9] = experiment: Inhibition of KCl-induced contraction in Sprague-Dawley rat trachea assessed as tracheal tension at 10^-8 mol/L (reference value: 2.16 to 2.59 g); assay type: functional
Trachea [10] = experiment: Inhibition of KCl-induced contraction in Sprague-Dawley rat trachea assessed as tracheal tension at 10^-6 mol/L (reference value: 2.16 to 2.59 g); assay type: functional
Trachea [11] = experiment: Inhibition of KCl-induced contraction in Sprague-Dawley rat trachea assessed as tracheal tension at 10^-4 mol/L (reference value: 2.16 to 2.59 g); assay type: functional
Trachea [12] = experiment: Inhibition of Ach-induced contraction in Sprague-Dawley rat trachea assessed as maximal diastolic rate at 10^-6 mol/L (reference value: 15.9 +/- 3%); assay type: functional; parameters: scale not given: the % may be the effect or the level left
Trachea [13] = experiment: Inhibition of KCl-induced contraction in Sprague-Dawley rat trachea assessed as tracheal tension at 10^-7 mol/L (reference value: 2.16 to 2.59 g); assay type: functional
Trachea [14] = experiment: Inhibition of KCl-induced contraction in Sprague-Dawley rat trachea assessed as maximal diastolic rate at 10^-6 mol/L (reference value: 6 +/- 1.2%); assay type: functional; parameters: scale not given: the % may be the effect or the level left
Trachea [15] = experiment: Inhibition of Ach-induced contraction in Sprague-Dawley rat trachea assessed as tracheal tension at 10^-8 mol/L (reference value: 0.63 to 0.98 g); assay type: functional
Trachea [16] = experiment: Inhibition of Ach-induced contraction in Sprague-Dawley rat trachea assessed as maximal diastolic rate at 10^-9 mol/L (reference value: 12.7 +/- 2.8%); assay type: functional; parameters: scale not given: the % may be the effect or the level left
Trachea [17] = experiment: Inhibition of Ach-induced contraction in Sprague-Dawley rat trachea assessed as tracheal tension at 10^-7 mol/L (reference value: 0.63 to 0.98 g); assay type: functional
Trachea [18] = experiment: Inhibition of KCl-induced contraction in Sprague-Dawley rat trachea assessed as maximal diastolic rate at 10^-9 mol/L (reference value: 5.9 +/- 1.8%); assay type: functional; parameters: scale not given: the % may be the effect or the level left
Trachea [19] = experiment: Inhibition of Ach-induced contraction in Sprague-Dawley rat trachea at 1 to 100 umol/L; assay type: functional, tissue-based; details: read-out: pA2 (converted)
Trachea [20] = experiment: Inhibition of KCl-induced contraction in Sprague-Dawley rat trachea assessed as tracheal tension at 10^-5 mol/L (reference value: 2.16 to 2.59 g); assay type: functional
Trachea [21] = experiment: Inhibition of Ach-induced contraction in Sprague-Dawley rat trachea; assay type: functional, tissue-based
Trachea [22] = experiment: Inhibition of Ach-induced contraction in Sprague-Dawley rat trachea assessed as maximal diastolic rate at 10^-8 mol/L (reference value: 14 +/- 1.8%); assay type: functional; parameters: scale not given: the % may be the effect or the level left
Trachea [23] = experiment: Inhibition of KCl-induced contraction in Sprague-Dawley rat trachea assessed as tracheal tension at 10^-9 mol/L (reference value: 2.16 to 2.59 g); assay type: functional
Trachea [24] = experiment: Inhibition of KCl-induced contraction in Sprague-Dawley rat trachea assessed as maximal diastolic rate at 10^-5 mol/L (reference value: 6 +/- 0.6%); assay type: functional; parameters: scale not given: the % may be the effect or the level left
Trachea [25] = experiment: Inhibition of Ach-induced contraction in Sprague-Dawley rat trachea assessed as maximal diastolic rate at 10^-7 mol/L (reference value: 14.2 +/- 2.3%); assay type: functional; parameters: scale not given: the % may be the effect or the level left
Trachea [26] = experiment: Inhibition of KCl-induced contraction in Sprague-Dawley rat trachea assessed as maximal diastolic rate at 10^-7 mol/L (reference value: 7 +/- 0.8%); assay type: functional; parameters: scale not given: the % may be the effect or the level left
Trachea [27] = experiment: Inhibition of Ach-induced contraction in Sprague-Dawley rat trachea at 100 umol/L; assay type: functional, tissue-based

| SMILES | Activity (Trachea [1]) [g] | Activity (Trachea [2]) [%] | Activity (Trachea [3]) [g] | Activity (Trachea [4]) [g] | Activity (Trachea [5]) [g] | Activity (Trachea [6]) [%] | Activity (Trachea [7]) [%] | Activity (Trachea [8]) [%] | Activity (Trachea [9]) [g] | Activity (Trachea [10]) [g] | Activity (Trachea [11]) [g] | Activity (Trachea [12]) [%] | Activity (Trachea [13]) [g] | Activity (Trachea [14]) [%] | Activity (Trachea [15]) [g] | Activity (Trachea [16]) [%] | Activity (Trachea [17]) [g] | Activity (Trachea [18]) [%] | Kb (Trachea [19]) [µM] | Activity (Trachea [20]) [g] | also measured |
| --- | --- | --- | --- | --- | --- | --- | --- | --- | --- | --- | --- | --- | --- | --- | --- | --- | --- | --- | --- | --- | --- |
| C[C@H]1CC[C@H]2N(C1)C[C@H]1[C@@H]3C[C@H]4[C@@H](CC(=O)[C@H]5C[C@@H](O[C@@H]6O[C@H](CO)[C@@H](O)[C@H](O)[C@H]6O)CC[C@@]54C)[C@@H]3CC[C@@H]1[C@@]2(C)O | 0.84 | 15.6 | 0.85 | 0.83 | 0.84 | 8.3 | 15.9 | 6.2 | 2.37 | 2.34 | 2.33 | 15 | 2.36 | 7.5 | 0.84 | 12.2 | 0.83 | 7.8 | 2.63 | 2.37 | pEC50 (Trachea [21]): 5.52; Activity (Trachea [22]): 13.8%; Activity (Trachea [23]): 2.33 g; Activity (Trachea [24]): 6.4%; Activity (Trachea [25]): 14.9%; Activity (Trachea [26]): 6.4% |
| C[C@H]1CC[C@@H]2N(C1)C[C@H]1[C@@H]3C[C@H]4[C@@H](CC(=O)[C@H]5C[C@@H](O)CC[C@@]54C)[C@@H]3CC[C@H]1[C@]2(C)O [IMPERIALINE] | 0.48 | 50.7 | 0.58 | 0.49 | 0.5 | 7.2 | 45.7 | 6.3 | 2.43 | 2.43 | 2.41 | 40.4 | 2.44 | 6.4 | 0.55 | 14.5 | 0.52 | 5.7 | 0.00389 | 2.42 | pEC50 (Trachea [21]): 5.36; Activity (Trachea [22]): 28.1%; Activity (Trachea [23]): 2.44 g; Activity (Trachea [24]): 6.8%; Activity (Trachea [25]): 35.3%; Activity (Trachea [26]): 6% |
| C[C@@H]1CC[C@H]2N(C1)C[C@H]1[C@@H]3C[C@H]4[C@@H](CC(=O)[C@H]5C[C@@H](O)CC[C@@]54C)[C@@H]3CC[C@@H]1[C@]2(C)O | 0.38 | 39.3 | 0.54 | 0.43 | 0.46 | 3.6 | 34.3 | 5.2 | 2.46 | 2.48 | 2.48 | 30.4 | 2.49 | 3.6 | 0.51 | 15.8 | 0.48 | 6.2 | 0.646 | 2.49 | inhibition (Trachea [27]): Active; pEC50 (Trachea [21]): 6.19; Activity (Trachea [22]): 20.6%; Activity (Trachea [23]): 2.43 g; Activity (Trachea [24]): 3.3%; Activity (Trachea [25]): 27.5%; Activity (Trachea [26]): 3.2% |
